{"source": "patent US5712282A", "about": "“Method for therapeutically treating tardive dyskinesia and uses thereof” (Iyo; Masaomi, priority 1994, dated 1998)", "key": {"[1]": {"system": "SD-strain rats", "assay": "Test Example 1: tardive dyskinesia induced by haloperidol (1.5 mg/kg i.p. daily, 3 weeks) in rats", "type": "in vivo, SD-strain rats (male)", "conditions": "for Number of the tongue protrusions / Number of the chewings: 15 min observation from 3 min after dosing, Mean±SE; for Number of the tongue protrusions: control 7.7 ± 2.1; for Number of the chewings: control 111.2 ± 27.8", "method": "After lapse of 96 hours from the completion of the last administration of haloperidol, the number of the vacuous chewing movements of the mouth and the number of abnormal tongue-protruding movements of the rats were counted as the parameters indicative of tardive dyskinesia."}, "[2]": {"system": "cAMP in the brain", "conditions": "rats; animal tests, J. Med. Chem. 34(1), 291-293 (1991); cited from earlier work"}, "[3]": {"assay": "acute toxicity in rats", "conditions": "rat, in vivo"}, "[4]": {"system": "SD-strain rats", "assay": "Test Example 2: oral dyskinesia induced by haloperidol decanoate (25 mg/kg i.m. every 4 weeks, 24 weeks) in rats", "type": "in vivo, SD-strain rats (male)", "conditions": "for Number of the tongue protrusions / Number of the chewings: 15 min observation from 15 min after dosing, Mean±SE; for Number of the tongue protrusions: control 17.2 ± 5.5; for Number of the chewings: control 213.3 ± 50.5; for suppression of oral dyskinesia: haloperidol decanoate-induced, rats, i.p.", "method": "Haloperidol decanoate was intramuscularly injected in the femoral region of each rat of SD-strain rats (male, 6 rats per group) at a dose of 25 mg/kg once for every 4 weeks during the total period of 24 weeks.\nTo the control group of rats was intraperitoneally administered only the physiological saline containing 10% Cremophor.\nThe numbers of the vacuous chewing movements and the abnormal tongue-protruding movements appearing during the 15 min. period of the observation were counted as indices of oral dyskinesia in the rats.\nValues of Mean±Standard error of the numbers of the abnormal movements as observed were calculated, and the results obtained are shown in Table 3 below."}, "[5]": {"biological_target": "phosphodiesterase IV", "conditions": "Type of PDE inhibited: IV; in vitro; cited from earlier work"}, "[6]": {"system": "SD-strain rats", "assay": "Test Example 3: oral dyskinesia induced by haloperidol (1.5 mg/kg i.p. daily, 5 weeks) in rats", "type": "in vivo, SD-strain rats (female)", "method": "Haloperidol in the form of a suspension of haloperidol in 0.5% aqueous carboxymethylcellulose was intraperitoneally administrated at a dose of 1.5 mg/kg to each rat of SD-strain rats (female, 7 to 8 rats per group) once a day for consecutive five weeks.\nRo 20-1724 was formulated into the form of a suspension in which said compound was partially dissolved and partially dispersed in a physiological saline containing 10% Cremophor. On the next day of the final administration of haloperidol, Ro 20-1724 as the suspension was intraperitoneally administered at a dose of 3 mg/kg, […] or 30 mg/kg in the rats under test. To the control group of rats was administered only the physiological saline containing 10% Cremophor.\nThe numbers of the vacuous chewing movements and the abnormal tongue-protruding movements appearing during the 15 min. period of the observation were counted as the indices of oral dyskinesia in the rats. The net observation time was calculated by substracting from the total observation time of 15 minutes the amount of time which the rat spent in exploration or grooming. The indices of the oral dyskinesia were expressed as the number of occurrence of the abnormal movements observed in one minute of the net observation time."}, "[7]": {"biological_target": "phosphodiesterase I ~ V", "conditions": "Type of PDE inhibited: I ~ V; in vitro; cited from earlier work"}, "[8]": {"biological_target": "phosphodiesterase I", "conditions": "Type of PDE inhibited: I; in vitro; cited from earlier work"}, "[9]": {"system": "patients", "conditions": "long-term administration; cited from earlier work"}}}
{"smiles": "COc1ccc(C2CNC(=O)C2)cc1OC1CCCC1", "note": "(racemic) [Rolipram, (±)-4-[3-(cyclopentyloxy)-4-methoxyphenyl]-2-pyrrolidinone]", "values": [{"measurement": "Number of the tongue protrusions", "setting": "[1]; 0.5 mg/kg i.p.", "value": "2.7 ± 1.7"}, {"measurement": "Number of the chewings", "setting": "[1]; 0.5 mg/kg i.p.", "value": "32.2 ± 14.5"}, {"measurement": "Number of the tongue protrusions", "setting": "[1]; 1.0 mg/kg i.p.", "value": "1.5 ± 1.5"}, {"measurement": "Number of the chewings", "setting": "[1]; 1.0 mg/kg i.p.", "value": "8.8 ± 4.0"}, {"measurement": "therapeutic effect on symptoms of tardive dyskinesia", "setting": "[1]; haloperidol-induced rat model, i.p. 0.5 and 1.0 mg/kg", "value": "suppresses in a dose-dependent manner the symptoms of tardive dyskinesia"}, {"measurement": "concentration of cAMP in the brain", "setting": "[2]", "value": "can increase the concentration of cAMP in the brain of rats"}, {"measurement": "LD50", "setting": "[3]; ip, intraperitoneal", "value": "~500", "unit": "mg/kg"}, {"measurement": "LD50", "setting": "[3]; oral", "value": "~1200", "unit": "mg/kg"}, {"measurement": "Number of the tongue protrusions", "setting": "[4]; 0.1 mg/kg i.p.", "value": "6.0 ± 2.2"}, {"measurement": "Number of the chewings", "setting": "[4]; 0.1 mg/kg i.p.", "value": "138.0 ± 38.1"}, {"measurement": "Number of the tongue protrusions", "setting": "[4]; 0.5 mg/kg i.p.", "value": "1.7 ± 1.1"}, {"measurement": "Number of the chewings", "setting": "[4]; 0.5 mg/kg i.p.", "value": "33.8 ± 13.8"}, {"measurement": "Number of the tongue protrusions", "setting": "[4]; 1.0 mg/kg i.p.", "value": "1.3 ± 1.1"}, {"measurement": "Number of the chewings", "setting": "[4]; 1.0 mg/kg i.p.", "value": "42.0 ± 9.5"}, {"measurement": "suppression of oral dyskinesia", "setting": "[4]", "value": "suppress in a dose-dependent manner the oral dyskinesia"}]}
{"smiles": "CCCCn1c(=O)c2c(ncn2CC(C)=O)n(CCCC)c1=O", "note": "[Denbufylline, 7-(2-oxopropyl)-1,3-di-n-butylxanthine]", "values": [{"measurement": "IC50", "setting": "[5]", "value": 0.3, "unit": "µM"}]}
{"smiles": "CC(C)Cn1c(=O)n(C)c(=O)c2[nH]cnc21", "note": "[IBMX, 3-isobutyl-1-methylxanthine]", "values": [{"measurement": "Number of the tongue protrusions", "setting": "[4]; 2.0 mg/kg i.p.", "value": "4.8 ± 1.8"}, {"measurement": "Number of the chewings", "setting": "[4]; 2.0 mg/kg i.p.", "value": "135.3 ± 45.0"}, {"measurement": "suppression of oral dyskinesia", "setting": "[4]", "value": "had a tendency to suppress the above-mentioned oral dyskinesia"}]}
{"smiles": "CCCCOc1cc(CC2CNC(=O)N2)ccc1OC", "note": "(centres unmarked) [Ro 20-1724]", "values": [{"measurement": "Number of the tongue protrusions", "setting": "[6]; 3 mg/kg i.p., number in one minute of net observation time, Mean±SE, n = 8, control 1.90 ± 0.87", "value": "0.46 ± 0.17"}, {"measurement": "Number of the chewings", "setting": "[6]; 3 mg/kg i.p., number in one minute of net observation time, Mean±SE, n = 8, control 16.2 ± 2.4", "value": "11.7 ± 2.1"}, {"measurement": "suppression of oral dyskinesia", "setting": "[6]; haloperidol-induced, rats, i.p. 3, 10, 30 mg/kg", "value": "suppressed in a dose dependent manner the oral dyskinesia"}, {"measurement": "IC50", "setting": "[5]", "value": 2, "unit": "µM"}]}
{"smiles": "Cn1c(=O)c2[nH]cnc2n(C)c1=O", "note": "[Theophylline, 3,7-dihydro-1,3-dimethyl-1H-purine-2,6-dione]", "values": [{"measurement": "IC50", "setting": "[7]", "value": "~200", "unit": "µM"}]}
{"smiles": "CCOC(=O)C1=C[C@]2(CC)CCCN3CCc4c(n1c1ccccc41)[C@@H]32", "note": "[Vinpocetine, eburnamenine 14-carboxylic acid ethyl ester]", "values": [{"measurement": "IC50", "setting": "[8]", "value": 20, "unit": "µM"}]}
{"smiles": "O=C(CCCN1CCC(O)(c2ccc(Cl)cc2)CC1)c1ccc(F)cc1", "note": "[haloperidol]", "values": [{"measurement": "adverse reaction", "setting": "[9]", "value": "induction of tardive dyskinesia"}]}
